# Data published in ChEMBL document CHEMBL5344472, “Discovery of Alternative Binding Poses through Fragment-Based Identification of DHODH Inhibitors” (ACS Med Chem Lett, 2024).
# Key:
# [1] = system: MOLM-13; assay: Antiproliferative activity in human MOLM-13 AML cells assessed as reduction in cell viability incubated for 72 hrs by CellTiter-Glo assay; conditions: MOLM-13, 72 h
# [2] = Metabolic stability in human liver microsome assessed as half life; format: ADME; conditions: liver microsomes
# [3] = Metabolic stability in mouse liver microsome assessed as half life; format: ADME; conditions: liver microsomes
# [4] = Microsomal stability in mouse assessed as half-life; format: ADME, Microsome; conditions: microsomes
# [5] = Microsomal stability in human assessed as half-life; format: ADME, Microsome; conditions: microsomes
# [6] = molecular target: Dihydroorotate dehydrogenase (quinone), mitochondrial (Homo sapiens, UniProt Q02127); assay: Inhibition of human DHODH in MOLM-13 AML cells; format: cell-based
# Chain of Dihydroorotate dehydrogenase (quinone), mitochondrial (Q02127 whole entry): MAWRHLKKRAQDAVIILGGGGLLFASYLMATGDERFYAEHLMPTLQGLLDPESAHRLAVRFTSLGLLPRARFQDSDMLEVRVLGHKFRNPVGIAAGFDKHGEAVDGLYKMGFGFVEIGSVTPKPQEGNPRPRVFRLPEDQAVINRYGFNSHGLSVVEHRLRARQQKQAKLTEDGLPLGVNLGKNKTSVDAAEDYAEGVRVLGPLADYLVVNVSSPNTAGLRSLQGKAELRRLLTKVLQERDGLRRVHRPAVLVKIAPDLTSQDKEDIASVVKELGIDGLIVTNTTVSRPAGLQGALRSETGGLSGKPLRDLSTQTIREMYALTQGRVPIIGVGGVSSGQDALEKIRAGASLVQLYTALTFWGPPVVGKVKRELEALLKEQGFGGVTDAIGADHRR
# [7] = molecular target: P-gp (ABCB1) (Homo sapiens, UniProt P08183); assay: Substrate activity at P-gp (unknown origin) assessed as efflux ratio; format: ADME; conditions: not told
# Chain of P-gp (ABCB1) (P08183 whole entry): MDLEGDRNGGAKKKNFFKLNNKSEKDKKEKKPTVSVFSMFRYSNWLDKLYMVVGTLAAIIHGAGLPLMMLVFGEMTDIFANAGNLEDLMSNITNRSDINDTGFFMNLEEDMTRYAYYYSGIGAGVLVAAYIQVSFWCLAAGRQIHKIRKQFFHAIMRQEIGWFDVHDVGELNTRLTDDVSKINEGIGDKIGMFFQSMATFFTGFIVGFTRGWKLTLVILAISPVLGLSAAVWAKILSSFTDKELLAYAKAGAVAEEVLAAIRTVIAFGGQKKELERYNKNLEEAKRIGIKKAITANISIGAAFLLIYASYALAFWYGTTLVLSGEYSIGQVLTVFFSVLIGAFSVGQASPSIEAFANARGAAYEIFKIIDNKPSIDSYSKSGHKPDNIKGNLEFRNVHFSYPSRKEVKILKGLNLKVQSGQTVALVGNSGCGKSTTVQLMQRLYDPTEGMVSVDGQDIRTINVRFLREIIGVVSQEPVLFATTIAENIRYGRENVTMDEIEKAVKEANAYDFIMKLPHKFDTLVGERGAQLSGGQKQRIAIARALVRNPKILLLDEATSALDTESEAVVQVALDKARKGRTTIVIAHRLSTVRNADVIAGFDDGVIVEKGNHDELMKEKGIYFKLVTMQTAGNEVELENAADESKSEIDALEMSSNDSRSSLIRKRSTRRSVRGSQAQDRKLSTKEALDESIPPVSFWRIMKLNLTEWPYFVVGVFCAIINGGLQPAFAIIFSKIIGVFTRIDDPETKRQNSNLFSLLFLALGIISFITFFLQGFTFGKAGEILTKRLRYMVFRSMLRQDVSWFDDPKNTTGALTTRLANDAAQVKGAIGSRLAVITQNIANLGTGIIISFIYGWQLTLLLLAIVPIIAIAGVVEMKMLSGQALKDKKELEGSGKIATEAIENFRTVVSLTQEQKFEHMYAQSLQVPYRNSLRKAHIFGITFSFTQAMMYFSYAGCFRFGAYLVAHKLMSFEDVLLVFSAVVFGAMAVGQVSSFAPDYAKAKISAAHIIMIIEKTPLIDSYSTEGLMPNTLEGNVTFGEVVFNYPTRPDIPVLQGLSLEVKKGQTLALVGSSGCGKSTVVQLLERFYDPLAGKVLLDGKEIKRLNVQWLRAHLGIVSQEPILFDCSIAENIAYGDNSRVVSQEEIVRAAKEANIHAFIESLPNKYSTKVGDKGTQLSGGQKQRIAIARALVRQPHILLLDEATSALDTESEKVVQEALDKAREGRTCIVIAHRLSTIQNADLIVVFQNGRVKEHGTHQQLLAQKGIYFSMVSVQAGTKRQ
# [8] = Intrinsic clearance in human liver microsomes; format: ADME, Microsome; conditions: read-out: CLH
# [9] = Permeability of compound in MDCK cells; format: ADME, cell-based, Canis lupus familiaris; conditions: dog, read-out: permeability
# [10] = Plasma protein binding in mouse assessed as free fraction; format: ADME, cell-free; conditions: read-out: PPB
# [11] = Plasma protein binding in human assessed as free fraction; format: ADME, cell-free; conditions: read-out: PPB
# [12] = Volume of distribution at steady state in C57 mouse at 10 mg/kg, po or 2 mg/kg, iv; format: ADME, organism-based; conditions: in vivo
# [13] = Oral bioavailability in C57 mouse at 10 mg/kg; format: ADME, organism-based; conditions: in vivo
# [14] = Half-life in C57 mouse at 10 mg/kg, po or 2 mg/kg, iv; format: ADME, organism-based; conditions: in vivo
# [15] = Clearance in iv dosed mouse assessed as hepatic blood flow; format: ADME, organism-based; conditions: in vivo
SMILES,IC50 [1] [nM],half-life [2] [min],half-life [3] [min],further results
CC/C(=C\CO)C(=O)Nc1cc(O[C@@H](C)C(F)(F)F)c(C(=O)Nc2c(F)cccc2Cl)cc1F,64,,,
CCN(CC)C(=O)Nc1cc(O[C@@H](C)C(F)(F)F)c(C(=O)Nc2c(F)cccc2Cl)cc1F,0.63,26,12,
CCCC(=O)Nc1cc(O[C@@H](C)C(F)(F)F)c(C(=O)Nc2c(F)cccc2Cl)cc1F,46,,,half-life [4]: < 4 min; half-life [5]: 31 min
CCC(CC)C(=O)Nc1cc(O[C@@H](C)C(F)(F)F)c(C(=O)Nc2c(F)cccc2Cl)cc1F,53,,,
COCC1CCCN1C(=O)Nc1cc(O[C@@H](C)C(F)(F)F)c(C(=O)Nc2c(F)cccc2Cl)cc1F (stereo partly specified),11,,,
CCn1c(CO)nn(-c2nc(O[C@@H](C)C(F)(F)F)c(C(=O)Nc3c(F)cccc3Cl)cc2F)c1=O,,,,IC50 [6]: 0.24 nM; efflux ratio [7]: > 30
CCC(=O)Nc1cc(O[C@@H](C)C(F)(F)F)c(C(=O)Nc2c(F)cccc2Cl)cc1F,35,,,
CCn1c(CO)nn(-c2nc(O[C@@H](C)C(F)(F)F)c(C(=O)Nc3c(C)cnc(OC)c3Cl)cc2F)c1=O,,,,CLint scaled [8]: < 7.7 mL/min/kg; Papp [9]: 27 ×10⁻⁶ cm/s; efflux ratio [7]: > 30
C[C@H](Oc1cc(NC(=O)N2C(=O)CCC2CO)c(F)cc1C(=O)Nc1c(F)cccc1Cl)C(F)(F)F (mixture of isomers),0.92,62,106,fraction unbound [10]: 0.007; fraction unbound [11]: 0.012; Vdss [12]: 3.6 L/kg; bioavailability [13]: > 100%; half-life [14]: 180 min; QH [15]: ~ 20%
C[C@H](Oc1cc(NC(=O)C2CC2)c(F)cc1C(=O)Nc1c(F)cccc1Cl)C(F)(F)F,55,,,
C[C@H](Oc1cc(NC(=O)N2CCCC2)c(F)cc1C(=O)Nc1c(F)cccc1Cl)C(F)(F)F,1.3,,,
CC(=O)Nc1cc(O[C@@H](C)C(F)(F)F)c(C(=O)Nc2c(F)cccc2Cl)cc1F,370,,,
C[C@H](Oc1cc(NC(=O)N(C)C)c(F)cc1C(=O)Nc1c(F)cccc1Cl)C(F)(F)F,2,22,< 4,
C[C@H](Oc1cc(NC(=O)N2CCC2CO)c(F)cc1C(=O)Nc1c(F)cccc1Cl)C(F)(F)F (mixture of isomers),1.6,28,15,
C[C@H](Oc1cc(NC(=O)N2CCC(F)(F)C2)c(F)cc1C(=O)Nc1c(F)cccc1Cl)C(F)(F)F,4.3,,,
CCC(CCO)C(=O)Nc1cc(O[C@@H](C)C(F)(F)F)c(C(=O)Nc2c(F)cccc2Cl)cc1F (stereo partly specified),206,,,

# Second part, led by results:
IC50 [1] [nM],half-life [2] [min],half-life [3] [min],SMILES,further results
430,142,178,C[C@H](Oc1cc(NC(=O)N2CC(CO)C2)c(F)cc1C(=O)Nc1c(F)cccc1Cl)C(F)(F)F,
0.82,21,< 4,CCN(C)C(=O)Nc1cc(O[C@@H](C)C(F)(F)F)c(C(=O)Nc2c(F)cccc2Cl)cc1F,
53,,,CCNC(=O)Nc1cc(O[C@@H](C)C(F)(F)F)c(C(=O)Nc2c(F)cccc2Cl)cc1F,
25,< 4,< 4,CCN(CC)C(=O)N(C)c1cc(O[C@@H](C)C(F)(F)F)c(C(=O)Nc2c(F)cccc2Cl)cc1F,
1,50,20,CCN(C(=O)Nc1cc(O[C@@H](C)C(F)(F)F)c(C(=O)Nc2c(F)cccc2Cl)cc1F)C1CC1,
1.5,56,45,C[C@H](Oc1cc(NC(=O)N2CCCC2CO)c(F)cc1C(=O)Nc1c(F)cccc1Cl)C(F)(F)F (mixture of isomers),
